# Reference: patent EP4603105A1, “PHARMACEUTICAL COMPOSITION CONTAINING CYCLIC COMPOUND HAVING SELECTIVE KRAS INHIBITORY EFFECT AGAINST HRAS AND NRAS” (CHUGAI SEIYAKU KABUSHIKI KAISHA, priority 2022, dated 2024)
# Where a SMILES comes first, the peptide text is derived from it. Bridges are numbered along the chain shown (N, C = ends). [ ]: non-standard residue; d: D form. The star is where a group is joined. hPhe(3-Cl-4-CF3) = N[C@@H](CCc1ccc(C(F)(F)F)c(Cl)c1)C(=O)O; NPrPhe(4-CF3) = CCCN[C@@H](Cc1ccc(C(F)(F)F)cc1)C(=O)O; NMeGly(cPent) = CN[C@H](C(=O)O)C1CCCC1; NMeD = CN[C@@H](CC(=O)O)C(=O)O; hPip = O=C(O)[C@@H]1CCCCCN1; Morpholide = C1CN(*)CCO1; Ac5c = NC1(C(=O)O)CCCC1; Aze = O=C(O)[C@@H]1CCN1; Sar = CNCC(=O)O
# Legend:
# [1] = molecular target: GDP-bound KRAS wild-type protein (Homo sapiens, UniProt P01116); experiment: Binding to KRAS by surface plasmon resonance (SPR), dissociation constant KD
# Protocol: Surface plasmon resonance was used to analyze the binding affinity of compounds for KRAS, NRAS, and HRAS. The apparatus used was Biacore 8K, 8K+, or T200 (GE Healthcare), and the running buffer used was HBS (10 mM HEPES-NaOH, 150 mM NaCl, pH 7.4) containing 1 mM DTT, 10 mM MgCl2, 0.01% Tween 20, 10 µM GDP, and 4% DMSO.
# Biotinylated Avi-tag fusion KRAS, NRAS, and HRAS proteins were expressed in E. coli BL21 (DE3) strains, and after cells were homogenized, they were purified using Streptavidin Mutein Matrix and Superdex 75. After purification, GDP-loaded KRAS, NRAS, and HRAS proteins were immobilized on the surface of Sensor Chip CAP (Cytiva) coated with Biotin CAPture Reagent in an immobilization amount of about 100 to 300 RU. Binding of each compound was evaluated by the Single Cycle Kinetics method, and a running buffer or a compound solution was added to the RAS protein non-immobilized surface and the immobilized surface to obtain a binding response. The flow rate was set to 100 µL/min, and in the compound-adding cycle, compound solutions having different concentrations were intermittently added for 75 seconds each, starting from a low concentration. […] In the blank cycle, a running buffer was intermittently added and not the compound solution. The Biotin CAPture Reagent and RAS proteins were immobilized for each cycle, and at the end of each cycle, the sensor chip was regenerated by the regeneration solution appended to the Biotin CAPture Kit (Cytiva). Measurement was carried out at 30°C.
# The resulting sensorgram was subjected to curve fitting based on a 1:1 binding model on Biacore Insight Evaluation Software or T200 Evaluation Software, and thereby the dissociation constant KD of each compound with respect to KRAS, NRAS, and HRAS was determined. […] Blank indicates a compound from which the KD value with respect to NRAS or HRAS was not obtained.
# [2] = molecular target: GDP-bound NRAS wild-type protein (Homo sapiens, UniProt P01111); experiment: Binding to NRAS by surface plasmon resonance (SPR), KD and KD ratio to KRAS
# How it was run: (§1)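 GDP-bound biotin-Avi RAS captured at ~100–300 RU, 30°C, pH 7.4 HBS containing 10 µM GDP, 10 mM MgCl2, 1 mM DTT, 0.01% Tween 20 and 4% DMSO. KD by 1:1 fitting.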
# HRAS wild-type protein = HRAS wild-type protein (Homo sapiens, UniProt P01112); experiment: Binding to HRAS by surface plasmon resonance (SPR), KD and KD ratio to KRAS
# How it was run: as §1
# [3] = test system: human lung cancer strain NCI-H441; format: cell-based
# How it was run: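 Readout: […] after the ATP-based reagent. Compound: serial dilutions in dimethyl sulfoxide.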
# [4] = ratio of KD for GDP-bound NRAS wild-type protein to KD for KRAS
# [5] = ratio of KD for HRAS wild-type protein to KD for KRAS
# [6] = Single Cycle Kinetics, 1:1 binding model
# [7] = ratio of the KD value with respect to GDP-bound NRAS wild-type protein to the KD value with respect to KRAS
# [8] = ratio of the KD value with respect to HRAS wild-type protein to the KD value with respect to KRAS
# Chain of GDP-bound NRAS wild-type protein (P01111 whole entry): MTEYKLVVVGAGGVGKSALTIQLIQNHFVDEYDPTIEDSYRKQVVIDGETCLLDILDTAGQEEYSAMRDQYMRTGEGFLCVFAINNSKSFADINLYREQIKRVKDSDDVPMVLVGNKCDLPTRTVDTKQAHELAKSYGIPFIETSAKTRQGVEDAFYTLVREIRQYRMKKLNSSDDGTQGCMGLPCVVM
# Chain of HRAS wild-type protein (P01112 whole entry): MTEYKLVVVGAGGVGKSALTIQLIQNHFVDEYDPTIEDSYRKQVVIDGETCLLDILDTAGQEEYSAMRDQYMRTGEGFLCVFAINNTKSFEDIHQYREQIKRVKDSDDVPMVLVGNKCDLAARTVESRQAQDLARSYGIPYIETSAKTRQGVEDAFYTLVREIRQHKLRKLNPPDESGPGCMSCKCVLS
# Chain of GDP-bound KRAS wild-type protein (P01116 1-188 isoform P01116-2): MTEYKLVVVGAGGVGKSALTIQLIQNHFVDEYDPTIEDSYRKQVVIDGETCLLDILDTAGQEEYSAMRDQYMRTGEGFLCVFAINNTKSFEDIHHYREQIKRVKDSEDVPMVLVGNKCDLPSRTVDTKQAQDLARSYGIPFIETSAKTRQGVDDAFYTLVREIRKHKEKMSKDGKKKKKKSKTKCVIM
Structure (SMILES),Kd ([1]; Single Cycle Kinetics) [nM],"NRAS /KRAS [2, 4]",HRAS /KRAS (HRAS wild-type protein; [5]),IC50 [3] [nM],Kd ([1]; 1:1 binding model) [nM],"Kd [1, 6] [nM]","NRAS /KRAS [2, 7]",HRAS /KRAS (HRAS wild-type protein; [8])
CC[C@H](C)[C@@H]1NC(=O)[C@H](CC(C)C)N(C)C(=O)C[C@@H](C)N(C)C(=O)[C@H](C2CCCC2)N(C)C(=O)C2(CCC2)NC(=O)[C@@H]2CCCN2C(=O)[C@H](CCc2cc(F)c(C(F)(F)F)c(F)c2)NC(=O)CN(C)C(=O)[C@H](Cc2ccc(C(F)(F)F)cc2)N2CC/C=C\C[C@@H](C2=O)N(C)C(=O)CN(C)C1=O [PP1099],0.58,B (a compound having 3 or more and less than 10 is denoted as B),A (a compound having 10 or more and less than 20 is denoted as A),68.1,–,–,–,–
CCC[C@H]1C(=O)N[C@@H]([C@@H](C)CC)C(=O)N(C)CC(=O)N(C)[C@H]2C/C=C\CCN(C2=O)[C@@H](Cc2ccc(C)cc2)C(=O)N(C)CC(=O)N[C@@H](CCc2ccc(C(F)(F)F)c(OC)c2)C(=O)N2C[C@H](OCC)C[C@H]2C(=O)NC2(CC(C)(C)C2)C(=O)N(C)[C@@H](CC(C)C)C(=O)N(C)[C@H](C(=O)N(C)C)CC(=O)N1C [PP3008],–,A (a compound having 10 or more and less than 20 is denoted as A),A (a compound having 10 or more and less than 20 is denoted as A),16,0.38,–,–,–
CCO[C@@H]1C[C@H]2C(=O)NC3(CC(C)(C)C3)C(=O)N(C)[C@@H](C3CCCC3)C(=O)N(C)[C@H](C(=O)N(C)C)CC(=O)N(C)[C@@H]([C@@H](C)OC)C(=O)N[C@@H]([C@@H](C)CC)C(=O)N3CCC[C@H]3C(=O)N(C)[C@H]3C/C=C\CCN(C3=O)[C@@H](Cc3ccc(C(F)(F)F)cc3)C(=O)N(C)CC(=O)N[C@@H](CCc3ccc(C(F)(F)F)c(OC)c3)C(=O)N2C1 [PP3204],–,A (a compound having 10 or more and less than 20 is denoted as A),A (a compound having 10 or more and less than 20 is denoted as A),29.2,0.4,–,–,–
CCC[C@H]1C(=O)N[C@@H]([C@@H](C)CC)C(=O)N(C)CC(=O)N(C)[C@H]2C/C=C\CCN(C2=O)[C@@H](Cc2ccc(C)cc2)C(=O)N(C)CC(=O)N[C@@H](CCc2ccc(C(F)(F)F)c(OC)c2)C(=O)N2CC3(CC3)C[C@H]2C(=O)NC2(CC(C)(C)C2)C(=O)N(C)[C@@H](CC(C)C)C(=O)N(C)[C@H](C(=O)N(C)C)CC(=O)N1C [PP3013],–,AA (a compound having 20 or more is denoted as AA),B (a compound having 3 or more and less than 10 is denoted as B),29.7,0.53,–,–,–
CCO[C@@H]1C[C@H]2C(=O)NC3(CCC3)C(=O)N(C)[C@@H](C3CCCC3)C(=O)N(C)[C@H](C(=O)N3CCOCC3)CC(=O)N(C)[C@@H](CC(C)C)C(=O)N[C@@H]([C@@H](C)CC)C(=O)N(C)CC(=O)N(C)[C@H]3CC=C(C)CN(C3=O)[C@@H](Cc3ccc(C(F)(F)F)cc3)C(=O)N(C)CC(=O)N[C@@H](CCc3cc(F)c(C(F)(F)F)c(F)c3)C(=O)N2C1 [PP0826],0.13,C (A compound having a KD ratio of 0.1 or more and less than 3 is denoted as C),B (a compound having 3 or more and less than 10 is denoted as B),11.5,–,–,–,–
CCO[C@@H]1C[C@H]2C(=O)NC3(CCC3)C(=O)N(C)[C@@H](C3CCCC3)C(=O)N(C)[C@H](C(=O)N(C)C)CC(=O)N(C)[C@@H](C)C(=O)N[C@@H]([C@H](C)CC)C(=O)N(C)CC(=O)N(C)[C@H]3CCCCCN(C3=O)[C@@H](Cc3ccc(C(F)(F)F)cc3)C(=O)N(C)CC(=O)N[C@@H](CCc3cc(F)c(C(F)(F)F)c(F)c3)C(=O)N2C1 [PP0729],–,–,–,216,–,2.7,B (a compound having 3 or more and less than 10 is denoted as B),B (a compound having 3 or more and less than 10 is denoted as B)
CCO[C@@H]1C[C@H]2C(=O)NC3(CCC3)C(=O)N(C)[C@@H](C3CCCC3)C(=O)N(C)[C@H](C(=O)N3CCOCC3)CC(=O)N(C)[C@@H](CC(C)C)C(=O)N[C@@H]([C@@H](C)CC)C(=O)N(C)CC(=O)N(C)[C@H]3C[C@H]4C[C@H]4CN(C3=O)[C@@H](Cc3ccc(C(F)(F)F)cc3)C(=O)N(C)CC(=O)N[C@@H](CCc3cc(F)c(C(F)(F)F)c(F)c3)C(=O)N2C1 [PP0829],0.081,B (a compound having 3 or more and less than 10 is denoted as B),C (A compound having a KD ratio of 0.1 or more and less than 3 is denoted as C),4.4,–,–,–,–
CCCN1C(=O)CN(C)C(=O)[C@@H]2CCN2C(=O)[C@H]([C@@H](C)CC)NC(=O)[C@@H]2CCCCCN2C(=O)C[C@@H](C(=O)N2CCOCC2)N(C)C(=O)[C@H](C2CCCC2)N(C)C(=O)C2(CCCC2)NC(=O)[C@@H]2CCCN2C(=O)[C@H](CCc2ccc(C(F)(F)F)c(Cl)c2)NC(=O)CN(C)C(=O)[C@@H]1Cc1ccc(C(F)(F)F)cc1 [PP0302] ([hPip]I[Aze][Sar][NPrPhe(4-CF3)][Sar][hPhe(3-Cl-4-CF3)]P[Ac5c][NMeGly(cPent)][NMeD]-Morpholide; lactam N-11),–,B (a compound having 3 or more and less than 10 is denoted as B),C (A compound having a KD ratio of 0.1 or more and less than 3 is denoted as C),126,1.6,–,–,–
CC[C@H](C)[C@@H]1NC(=O)[C@H](COC)N(C)C(=O)C[C@@H](C(=O)N(C)CC)N(C)C(=O)[C@H](C2CCCC2)N(C)C(=O)C2(CC(C)(C)C2)NC(=O)[C@@H]2CC(F)(F)CN2C(=O)[C@H](CCc2ccc(C(F)(F)F)c(OC)c2)NC(=O)CN(C)C(=O)[C@H](Cc2ccc(C(F)(F)F)cc2)N2CC/C=C\C[C@@H](C2=O)N(C)C(=O)[C@@H]2CCN2C1=O [PP3136],–,B (a compound having 3 or more and less than 10 is denoted as B),B (a compound having 3 or more and less than 10 is denoted as B),47,0.63,–,–,–
CCC[C@H]1C(=O)N[C@@H]([C@@H](C)CC)C(=O)N(C2CC2)CC(=O)N(C)[C@H]2C/C=C\CCN(C2=O)[C@@H](CC2CCCCC2)C(=O)N(C)CC(=O)N[C@@H](CCc2ccc(C(F)(F)F)c(OC)c2)C(=O)N2C[C@H](OCC)C[C@H]2C(=O)N(C)C2(CCC2)C(=O)N(C)[C@@H](C2CCCC2)C(=O)N(C)[C@H](C(=O)N(C)C)CC(=O)N1C [PP2340],–,–,–,44.9,–,1.1,B (a compound having 3 or more and less than 10 is denoted as B),B (a compound having 3 or more and less than 10 is denoted as B)
CCC[C@@H]1C[C@H]2C(=O)NC3(CCCC3)C(=O)N(C)[C@@H](C3CCCC3)C(=O)N(C)[C@H](C(=O)N(C)C)CC(=O)N(C)[C@@H](CC(C)C)C(=O)N[C@@H]([C@@H](C)CC)C(=O)N(C)CC(=O)N(C)[C@H]3C/C=C\CCN(C3=O)[C@@H](Cc3ccc(C)cc3)C(=O)N(C)CC(=O)N[C@@H](CCc3cc(F)c(C(F)(F)F)c(F)c3)C(=O)N2C1 [PP2193],–,–,–,33.1,–,0.41,A (a compound having 10 or more and less than 20 is denoted as A),A (a compound having 10 or more and less than 20 is denoted as A)
CCO[C@@H]1C[C@H]2C(=O)NC(C)(C)C(=O)N(C)[C@@H](C3CCCC3)C(=O)N(C)[C@H](C(=O)N(C)CC)CC(=O)N(C)[C@@H](CC(C)C)C(=O)N[C@@H]([C@@H](C)CC)C(=O)N(C)CC(=O)N(C)[C@H]3C/C=C\CCN(C3=O)[C@@H](Cc3ccc(C(F)(F)F)cc3)C(=O)N(C)CC(=O)N[C@@H](CCc3cc(F)c(C(F)(F)F)c(F)c3)C(=O)N2C1 [PP1937],–,–,–,6.8,–,0.31,A (a compound having 10 or more and less than 20 is denoted as A),A (a compound having 10 or more and less than 20 is denoted as A)
CCO[C@@H]1C[C@H]2C(=O)NC3(CC(C)(C)C3)C(=O)N(C)[C@@H](C3CCCC3)C(=O)N(C)[C@H](C(=O)N(C)C)CC(=O)N(C)[C@@H]([C@@H](C)OC)C(=O)N[C@@H]([C@@H](C)CC)C(=O)N(C)CC(=O)N(C)[C@H]3C/C=C\CCN(C3=O)[C@@H](Cc3ccc(C)cc3)C(=O)N(C)CC(=O)N[C@@H](CCc3cc(F)c(C(F)(F)F)c(F)c3)C(=O)N2C1 [PP3208],–,A (a compound having 10 or more and less than 20 is denoted as A),A (a compound having 10 or more and less than 20 is denoted as A),2.8,0.076,–,–,–
